Experimental data from patent US20090313718A1, “POLYNUCLEOTIDES ENCODING CARYOPHYLLENE SYNTHASE AND USES THEREOF” (priority 2006, published 2009).
Entries after “also recorded” stand apart in the source; their conditions may differ. Like-named read-outs stand apart in the source and are kept apart here.

Key:
Heterorhabditis megidis = assay: Belowground six-arm olfactometer assay; format: in vivo
Experimental: 9. Bioassays • Attraction of the nematode Heterorhabditis megidis toward (E)-β-caryophyllene was tested with belowground six-arm olfactometer assays (Rasmann et al., 2005). The apparatus consisted of a central glass chamber with six evenly distributed side arms that connect it to six glass pots. The entire system was filled with moist sand (10% water). An aliquot of 0.2 μl of authentic (E)-β-caryophyllene (98% pure; Sigma-Aldrich) was injected into one of the glass pots and the five untreated pots were used as controls. About 2000 H. megidis were released in a drop of water in the centre of the central arena. […] On the next day, recovered nematodes were counted. • To test the above ground role of (E)-β-caryophyllene in attracting herbivore enemies, S. littoralis caterpillars and the solitary endoparasitoid Cotesia marginiventris were reared as described by Turlings et al. (2004). […] The experiment was repeated seven times. • The behavioral responses of parasitoids and entomopathogenic nematodes to (E)-β-caryophyllene were analyzed with a log-linear model corrected for the expected distribution within the olfactometer (Turlings et al. 2004). The model was fitted by maximum quasilikelihood estimation in the software package R (Version 2.4.0) and its adequacy was assessed through likelihood ratio statistics and examination of residuals. […]

Cotesia marginiventris = assay: Four-arm olfactometer assay with parasitoid females; format: in vivo; conditions: odor vs pure air
Experimental: FIG. 9 provides evidence that the parasitic wasp Cotesia marginiventris is attracted by (E)-β-caryophyllene after previous oviposition experience. Responses of the parasitic wasp Cotesia marginiventris to (E)-β-caryophyllene: The attraction of parasitoid females to a pure standard of (E)-β-caryophyllene was tested in a four-arm olfactometer. Two groups of parasitoids were tested: naïve wasps and wasps with a previous oviposition experience on host larvae in the presence of (E)-β-caryophyllene. The parasitoids were tested in groups of six (n=14).
9. […] On the next day, recovered nematodes were counted. • To test the above ground role of (E)-β-caryophyllene in attracting herbivore enemies, S. littoralis caterpillars and the solitary endoparasitoid Cotesia marginiventris were reared as described by Turlings et al. (2004). […] The experiment was repeated seven times. • The behavioral responses of parasitoids and entomopathogenic nematodes to (E)-β-caryophyllene were analyzed with a log-linear model corrected for the expected distribution within the olfactometer (Turlings et al. 2004). The model was fitted by maximum quasilikelihood estimation in the software package R (Version 2.4.0) and its adequacy was assessed through likelihood ratio statistics and examination of residuals. […]

pathogens = conditions: cited from earlier work
[1] = tested on: adult females of D. v. virgifera; conditions: in vivo; cited from earlier work
TPS23-Del [2] = target: T1, TPS23-Del (Zea mays, UniProt B2C4D0); assay: Kinetic and metal ion cofactor assay with purified TPS23 and tritium-labeled FPP
T1 sequence (B2C4D0 1-547): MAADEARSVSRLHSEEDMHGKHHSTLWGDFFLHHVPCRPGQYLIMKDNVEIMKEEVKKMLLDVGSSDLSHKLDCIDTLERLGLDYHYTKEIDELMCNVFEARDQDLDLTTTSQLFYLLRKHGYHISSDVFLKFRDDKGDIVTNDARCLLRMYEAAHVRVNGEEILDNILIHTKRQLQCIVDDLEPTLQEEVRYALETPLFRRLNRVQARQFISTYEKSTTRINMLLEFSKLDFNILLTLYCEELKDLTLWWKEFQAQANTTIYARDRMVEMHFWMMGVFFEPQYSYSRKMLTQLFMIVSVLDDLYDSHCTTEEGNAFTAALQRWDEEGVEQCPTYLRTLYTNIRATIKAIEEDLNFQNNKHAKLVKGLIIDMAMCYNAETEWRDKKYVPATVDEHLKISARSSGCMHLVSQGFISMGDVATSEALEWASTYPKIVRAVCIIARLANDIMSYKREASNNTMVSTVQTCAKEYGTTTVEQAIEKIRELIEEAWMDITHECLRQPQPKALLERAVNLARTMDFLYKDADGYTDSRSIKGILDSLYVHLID
Experimental: (§1) The construct was introduced into the E. coli strain BL21 (DE3) and fully sequenced to avoid errors introduced by DNA amplification. Liquid cultures of the bacteria harboring the expression constructs were grown at 37° C. to an OD600 of 0.6. Then, isopropyl-β-thiogalactopyranoside was added to a final concentration of 1 mM, and the cultures were incubated for 20 hours at 18° C. The cells were collected by centrifugation and disrupted by a 4×30 s treatment with a sonicator (Bandelin UW2070) in chilled extraction buffer (50 mM Mopso, pH 7.0, with 5 mM MgCl2, 5 mM sodium ascorbate, 0.5 mM PMSF, 5 mM dithiothreitol and 10% (v/v) glycerol). The cell fragments were removed by centrifugation at 14,000 g and the supernatant was desalted into assay buffer (10 mM Mopso, pH 7.0, 1 mM dithiothreitol, 10% (v/v) glycerol) by passage through a Econopac 10DG column (BioRad, Hercules, Calif., USA). For kinetic studies the His-tagged enzyme was further purified on a nickel-nitrilotriacetate agarose column (Qiagen, Heidelberg, Germany) according to manufacturer's instructions.
(§2) Assay for Terpene Synthase Activity • To determine the catalytic activity of the terpene synthase TPS23, enzyme assays containing 50 μl of the bacterial extract and 50 μl assay buffer with 10 μM (E,E)-FPP, 10 mM MgCl2, 0.05 mM MnCl2, 0.2 mM NaWO4 and 0.1 mM NaF in a Teflon-sealed, screw-capped 1 ml GC glass vial were performed. […] The assay was overlaid with 1 ml pentane to trap volatile products and incubated for 20 min at 30° C. The reaction was stopped by mixing, and 0.5 ml of the pentane layer was taken for measurement of radioactivity by liquid scintillation counting in 2 ml Lipoluma cocktail (Packard Bioscience, Groningen, The Netherlands) using a Packard Tricarb 2300TR liquid scintillation counter (^3H efficiency=61%). […] Assay results are reported as the mean of three independent replicate assays, and each experiment was repeated 2-3 times with similar results. The Km values were determined using seven substrate concentrations with four repetitions each. […] The concentration of the purified protein was determined by the method of Bradford (1976) using the BioRad reagent with BSA as standard.
(§3) To determine the biochemical properties of TPS23-Del, the purified enzyme was incubated with tritium-labeled FPP and the assays performed under the appropriate conditions.

TPS23-Del [3] = target: T1, TPS23-Del; assay: Substrate specificity and product identification of recombinant TPS23 (SPME, GC-MS); format: biochemical, maize (Zea mays L.); parameters: For expression with a N-terminal 8×His tag the ORF of tps23 was amplified; 8xHis (N); made in house; host or cells: E. coli BL21 (DE3), vector pHIS8-3; conditions: recombinant His-tagged TPS23-Del from E. coli BL21 (DE3)
Experimental: as §1
Assay for Terpene Synthase Activity • To determine the catalytic activity of the terpene synthase TPS23, enzyme assays containing 50 μl of the bacterial extract and 50 μl assay buffer with 10 μM (E,E)-FPP, 10 mM MgCl2, 0.05 mM MnCl2, 0.2 mM NaWO4 and 0.1 mM NaF in a Teflon-sealed, screw-capped 1 ml GC glass vial were performed. A SPME (solid phase microextraction) fiber consisting of 100 μm Polydimethylsiloxane (SUPELCO, Belafonte, Pa., USA) was placed into the headspace of the vial for 1 h incubation at 30° C. […] Assay results are reported as the mean of three independent replicate assays, and each experiment was repeated 2-3 times with similar results. […] The concentration of the purified protein was determined by the method of Bradford (1976) using the BioRad reagent with BSA as standard.
Gas Chromatography • A Hewlett-Packard model 6890 gas chromatograph was employed with the carrier gas He at 1 ml min^−1, splitless injection (injector temperature—220° C.), a Chrompack CP-SIL-5 CB-MS column ((5%-phenyl)-methylpolysiloxane, 25 m×0.25 mm i.d.×0.25μ film thickness, Varian, USA) and a temperature program from 40° C. (3-min hold) at 5° C. min^−1 to 240° C. (3 min hold). The coupled mass spectrometer was a Hewlett-Packard model 5973 with a quadrupole mass selective detector, transfer line temperature—230° C., source temperature—230° C., quadrupole temperature—150° C., ionization potential—70 eV and a scan range of 40-350 atomic mass units. Products were identified by comparison of retention times and mass spectra with authentic reference compounds. […]

[4] = stored at −80° C.
[5] = substrate: CC(C)=CCC/C(C)=C/CC/C(C)=C/CO[P@@](=O)(O)OP(=O)(O)O; assay: purified protein, by the assay type; conditions: other: FPP as substrate, TPS23-Del heterologously expressed in E. coli
Experimental: as §1, §2, §3

[6] = read-out: Km of divalent metal ion cofactor, TPS23-Del heterologously expressed in E. coli

Q: With `C=C1CC/C=C(\C)CC[C@@H]2[C@@H]1CC2(C)C` [(E)-β-caryophyllene] as the molecule, how does the “nematodes recovered from spiked arm compared to average of the five arms not spiked” value (Heterorhabditis megidis; 0.2 μl injected into one pot, 24 h after release of about 2000 H. megidis) read?
A: Approximately twice

Q: What about the attraction of nematodes (Heterorhabditis megidis; six-arm olfactometer filled with moist sand, spiked arm vs five control arms) of the same molecule?
A: significantly larger number; also recorded: attracts

Q: And the “attraction of experienced wasps” value (Cotesia marginiventris; females with previous oviposition experience on host larvae in the presence of (E)-β-caryophyllene)?
A: significant preference; also recorded: preferred air carrying (E)-β-caryophyllene to pure air

Q: And the “attraction of naïve wasps” value (Cotesia marginiventris; females without oviposition experience)?
A: did not show this preference; also recorded: not attracted

Q: And the anti-microbial activity (pathogens)?
A: has anti-microbial activity

Q: What about the “attractiveness to adult females of D. v. virgifera” value [1] of the same molecule?
A: reported attractiveness

Q: Which Km (TPS23-Del [2]; read-out: Km value for FPP, purified enzyme, tritium-labeled FPP) does the source give for `CC(C)=CCC/C(C)=C/CC/C(C)=C/CO[P@@](=O)(O)OP(=O)(O)O` [FPP, (E,E)-farnesyl diphosphate] here?
A: 2.4 ± 0.4 µM

Q: With `CC(C)=CCC/C(C)=C/CC/C(C)=C/CC/C(C)=C/COP(=O)(O)OP(=O)(O)O` [GGPP, geranylgeranyl diphosphate] as the molecule, how does the acceptance as substrate (TPS23-Del [3]) read?
A: does not accept; also recorded: did not accept

Q: For `CC(C)=CCC/C(C)=C/COP(=O)(O)OP(=O)(O)O` [GPP, geranyl diphosphate], which acceptance as substrate (TPS23-Del [3]) is on record?
A: does not accept; also recorded: did not accept

Q: With `[Mg+2]` [Mg^2+] as the molecule, how does the “enzyme activity with divalent cation” value (TPS23-Del [2]; 10 mM) read?
A: substantial activities

Q: What about the Km (TPS23-Del [2]; [6]) of the same molecule?
A: 183 ± 34 µM

Q: Which results are given for `[Mn+2]` [Mn^2+]?
A: enzyme activity with divalent cation (TPS23-Del [2]; 0.25 mM): substantial activities; Km (TPS23-Del [2]; [6]): 28 ± 6 µM

Q: With `CN1CCCCC1CCN1c2ccccc2Sc2ccc([S+](C)[O-])cc21` (stereo not shown) [TPS23-Del] as the molecule, how does the “time enzyme activity was stable” value [4] read?
A: at least 1 month

B1: TPS23-Del (Zea mays) (protein)
chain: MAADEARSVSRLHSEEDMHGKHHSTLWGDFFLHHVPCRPGQYLIMKDNVEIMKEEVKKMLLDVGSSDLSHKLDCIDTLERLGLDYHYTKEIDELMCNVFEARDQDLDLTTTSQLFYLLRKHGYHISSDVFLKFRDDKGDIVTNDARCLLRMYEAAHVRVNGEEILDNILIHTKRQLQCIVDDLEPTLQEEVRYALETPLFRRLNRVQARQFISTYEKSTTRINMLLEFSKLDFNILLTLYCEELKDLTLWWKEFQAQANTTIYARDRMVEMHFWMMGVFFEPQYSYSRKMLTQLFMIVSVLDDLYDSHCTTEEGNAFTAALQRWDEEGVEQCPTYLRTLYTNIRATIKAIEEDLNFQNNKHAKLVKGLIIDMAMCYNAETEWRDKKYVPATVDEHLKISARSSGCMHLVSQGFISMGDVATSEALEWASTYPKIVRAVCIIARLANDIMSYKREASNNTMVSTVQTCAKEYGTTTVEQAIEKIRELIEEAWMDITHECLRQPQPKALLERAVNLARTMDFLYKDADGYTDSRSIKGILDSLYVHLID
Q: Which Km ([5]; 0.25 mM MnCl2) does the source give for B1 here?
A: 1.1 ± 0.3 µM

Q: And the Km ([5]; 10 mM MgCl2)?
A: 3.7 ± 0.5 µM
